Measurements reported in patent US10208056B2, “Condensed tricyclic compounds as protein kinase inhibitors” (FUNDACIÓN DEL SECTOR PÚBLICO ESTATAL CENTRO NACIONAL DE …, priority 2015, dated 2019).

Assays:
SW620 cells = assay: Cell cycle assay (propidium iodine, flow cytometry); assay type: cell-based, human; conditions: SW620, 24 h, increasing concentrations
Method: Compounds can be screened for their ability to affect the cell cycle using a propidium iodine assay and analysis by flow cytometry. SW620 are plated at 500000 cells per well in 6-well plates (Solmeglas 13118) in RPMI media (Sigma-Aldrich R6504) supplemented with 10% foetal bovine serum (Sigma-Aldrich F7524), Penicillin/Streptomycin solution diluted 1:100 (Gibco 15070-063), and fungizone (Gibco, 15290-018), and allowed to adhere overnight at 37° C. in 5% CO2. Cells are then treated 24 h hours with compounds at final concentration of 5, 2.5, 1 and 0.5 μM. Cells are collected by trypsinization and centrifugation at 1250 rpm and washed with PBS (Sigma Ref. D8537). Cells are fixated with 70% cold ethanol (Merck Ref 100983)) and kept at 4° C. at least for 12 hours. After centrifugation, cells are washed with PBS and DNA is stained with a solution of 0.2 mg/mL RNAase (Quiagen Ref 1007885) and 0.02 mg/mL propidium iodine (Sigma Ref P4864). After 30 minutes incubation at room temperature in the dark cells are analyzed by FACSCalibur™ (BD biosciences) and Flowjo software.

[1] = test system: SW620 human colon cancer xenografts; assay: In vivo target modulation studies (P-STAT1 S727 in tumors); parameters: species or system mice; conditions: single oral dose 5 mg/kg; tumors sampled 1, 4, 8 and 24 h
Method: The in vivo potency of the compounds was measured determining target modulation in human colon xenografts. Eight weeks old female athymic nude mice (Harlan Sprague Dawley Inc) are subcutaneously grafted with 10*10^6 SW620 human colon cancer cells. When the tumors reach a size of 200-400 mm^3 the mice are dosed orally with 5 mg/kg of Example 43 or vehicle. Tumors are excised 1, 4, 8 and 24 h after administration (n=3 mice per time point) and are processed for western blot and for HPLC/MS/MS in order to determine the concentration for Example 43 in the tumor. […] The supernatants are removed and protein concentration is determined by Bradford method (Bio-Rad Protein Assay). […] 30-60 μg of total proteins extracts are analyzed by western blot for STAT1P/STAT1 modulation as has been described in the cellular CDK8 inhibition assay. […] Specific solid phase extraction methods as well as LC-MS/MS analysis and quantification methods were developed, reaching LLOQs of 1 ng/ml. […]

panel of 468 kinases = assay: KINOMEscan kinase panel selectivity score; assay type: binding
Source text: Compounds of the invention may have the advantage that they are effective inhibitors of protein kinases (e.g. CDK8 and/or haspin). […] For instance, the compounds of the invention may be selective inhibitors of certain protein or lipid kinases. […] Compounds that are selective inhibitors may be identified by screening in a 453-468 kinases panel (KINOMEscan™ from DiscoveRx). For example, selective inhibitors may show a selectivity score of S(20)<0.05.
Selectivity Score (or S-score) is a quantitative measure of a compound's selectivity. It is calculated by dividing the number of kinases to which a compound binds by the total number of distinct kinases tested (i.e. S=Number of hits/Number of assays).

A549 = assay: Combination assay, A549; assay type: cell-based
Method: (§1) The combination index (CI) of combinations of certain example compounds and various chemotherapeutic agents in the CellTitetI-Glo® in vitro cell proliferation assays may be tested. A combination index score is calculated by the Chou and Talalay method (CalcuSyn software, Biosoft). The strength of synergy is scored using the ranking system Chou and Talalay: CI less than 0.8 indicates synergy, CI between 0.8 and 1.2 indicates additivity and CI greater than 1.2 indicates antagonism.
(§2) The EC50 values of representative combinations are also calculated. The individually measured EC50 values of the chemotherapeutic agent and the example compounds are compared to the EC50 value of the combination. The cell lines are characterised by tumor type. Combination assays are performed as described in: “Pim 1 kinase inhibitor ETP-45299 suppresses cellular proliferation and synergizes with PI3K inhibition”. Blanco-Aparicio, Carmen; Collazo, Ana Maria Garcia; Oyarzabal, Julen; Leal, Juan F.; Albaran, Maria Isabel; Lima, Francisco Ramos; Pequeno, Belen; Ajenjo, Nuria; Becerra, Mercedes; Alfonso, Patricia; Reymundo, Maria Isabel; Palacios, Irene; Mateos, Genoveva; Quinones, Helena; Corrionero, Ana; Carnero, Amancio; Pevarello, Paolo; Lopez, Ana Rodriguez; Fominaya, Jesus; Pastor, Joaquin; Bischoff, James R. Cancer Letters (Shannon, Ireland) 2011, 300(2), 145-153

DU145 = assay: Combination assay, DU145; assay type: cell-based
Method: as §1
The EC50 values of representative combinations are also calculated. The individually measured EC50 values of the chemotherapeutic agent and the example compounds are compared to the EC50 value of the combination. The cell lines are characterised by tumor type. […] Blanco-Aparicio, Carmen; Collazo, Ana Maria Garcia; Oyarzabal, Julen; Leal, Juan F.; Albaran, Maria Isabel; Lima, Francisco Ramos; Pequeno, Belen; Ajenjo, Nuria; Becerra, Mercedes; Alfonso, Patricia; Reymundo, Maria Isabel; Palacios, Irene; Mateos, Genoveva; Quinones, Helena; Corrionero, Ana; Carnero, Amancio; Pevarello, Paolo; Lopez, Ana Rodriguez; Fominaya, Jesus; Pastor, Joaquin; Bischoff, James R. Cancer Letters (Shannon, Ireland) 2011, 300(2), 145-153

BXPC-3 = assay: Combination assay, BXPC-3; assay type: cell-based
Method: as §1, §2

[2] = A549, combination with Elesclomol
[3] = DU145, combination with Alisertib
[4] = DU145, combination with Crizotinib
[5] = BXPC-3, combination with Crizotinib
[6] = BXPC-3, combination with Elesclomol

Selectivity score S(20) (panel of 468 kinases): 0.038
GI50 (A549; Homo sapiens, A549, example compound alone, read-out: CDK8 inh GI50): 5 µM
GI50 (DU145; Homo sapiens, DU-145, DU145, example compound alone, read-out: CDK8 inh GI50): 5 µM
GI50 (BXPC-3; Homo sapiens, BXPC-3, example compound alone, read-out: CDK8 inh GI50): 5 µM
SMILES: CCn1c(C(N)=O)cc2c1-c1ccncc1OC2(C)C [Example 43]
effect on cell cycle (SW620 cells): induced G2M arrest and apoptosis
target modulation in vivo, P-STAT1 (S727) [1]: Clear target modulation is observed at 1 and 4 h
Combination index (CI) (A549; [2]): 0.63
Synergy (A549; [2]): ++ (0.3 < CI < 0.7 (++))
Combination index (CI) (DU145; [3]): 0.65
Synergy (DU145; [3]): ++ (0.3 < CI < 0.7 (++))
Combination index (CI) (DU145; [4]): 0.44
Synergy (DU145; [4]): ++ (0.3 < CI < 0.7 (++))
Combination index (CI) (DU145; DU145, combination with Taxol): 0.21
Synergy (DU145; DU145, combination with Taxol): +++ (0.1 < CI < 0.3 (+++))
Combination index (CI) (BXPC-3; [5]): 0.72
Synergy (BXPC-3; [5]): ++ (0.3 < CI < 0.7 (++))
Combination index (CI) (BXPC-3; [6]): 0.25
Synergy (BXPC-3; [6]): ++ (0.3 < CI < 0.7 (++))
